Target: MBP W62F mutant (Escherichia coli, UniProt P0AEX9, S259C/W88F)
Type: binding
Details: no sAB

OC[C@H]1O[C@H](O[C@H]2[C@H](O)[C@@H](O)C(O)O[C@@H]2CO)[C@H](O)[C@@H](O)[C@@H]1O (mixture of isomers) [maltose]
decrease in maltose binding energy caused by W62F mutation: ~ 2 kcal/mol

Reference: article PMC3077571 (Nature structural & molecular biology, 2011)
